The record followed here is ChEMBL document CHEMBL1201862, “PubChem BioAssay data set” (2004).

Holding throughout (test): NCI-60 cell line screen, 48 h
Assay [1] deals with UO-31.
For assay [2], the system named is MCF7.
The subject of assay [3] is DU-145.
Assay [4] concerns Hs-578T.
For assay [5], the system named is SF-539.
For assay [6], the system named is LOX IMVI.
In assay [7] the test system is SF-295.
The subject of assay [8] is 786-0.
The subject of assay [9] is SR.
Assay [10] relates to EKVX.
Assay [11] has as its system SNB-75.
In assay [12] the test system is Malme-3M.
Assay [13] concerns COLO 205.
Assay [14] relates to MDA-MB-435.
Assay [15] relates to SK-OV-3.
For assay [16], the system named is OVCAR-8.
The test system of assay [17] is NCI-H522.
Assay [18] deals with K562.
For assay [19], the system named is SN12C.
The test system of assay [20] is TK-10.

Each structure is given as a SMILES string.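 Five compound concentrations were applied to cells in 96-well plates for 48 hours; endpoints were derived by simple linear interpolation of the resulting dose-response curve. The concentration for 50% growth inhibition is given as GI50.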 Calls of active or inactive are those of the source. Cut-off read from the data, not from the text of the source: active = GI50 up to about 1.1 µM and inactive = higher.

For the compound `O=C(O)C(Cc1ccc2c(c1)CCC2)(Cc1ccc2c(c1)CCC2)C(=O)O`, the GI50 in [1], in assay [2], in assay [3], in [4], in assay [5] and in [6] was > 100 µM (inactive) throughout. Also, the GI50 in [7], in assay [8], in [9], in assay [10], in assay [11] and in assay [12] was > 100 µM (inactive) in each case. In addition, the GI50 in assay [13], in assay [14], in assay [15], in assay [16], in [17] and in assay [18] was > 100 µM (inactive) each time. For the same compound, the GI50 in assay [19] and in [20] was > 100 µM (inactive) each time.

Take `O=C(OC12CC3CC(CC(C3)C1)C2)c1ccc(NCc2cc(O)ccc2O)cc1`: the GI50 in [1] is 0.417 µM (active); in [2] it was 0.48 µM (active); in [3], 3.85 µM (inactive); in assay [4] it was 0.982 µM (active); in assay [5] it was 0.467 µM (active); in [6], 0.859 µM (active). In addition, the GI50 in [7] was 2.29 µM (inactive); in assay [8], 1.15 µM (inactive); in assay [9] it was 0.132 µM (active); in assay [10], 0.843 µM (active); in assay [11], 0.607 µM (active); in [12] it was 0.625 µM (active). Also, the GI50 is 0.285 µM (active) in [13]; 1.27 µM (inactive) in assay [14]; 2.99 µM (inactive) in assay [15]; 1.1 µM (active) in assay [16]; 0.0776 µM (active) in [17]; 0.622 µM (active) in assay [18]. Besides, the GI50 was 1.42 µM (inactive) in assay [19] and 0.885 µM (active) in [20].

Consider `CC(C)c1ccc(C(c2c(O)oc3ccccc3c2=O)c2c(O)oc3ccccc3c2=O)cc1`, for which the GI50 was 13.8 µM (inactive) in assay [1]; 27.9 µM (inactive) in [2]; 23.8 µM (inactive) in assay [3]; 25.6 µM (inactive) in assay [4]; 21.8 µM (inactive) in assay [5]; 17.7 µM (inactive) in assay [6]. The GI50 in [7] is 20 µM (inactive); in assay [8] it was 21.1 µM (inactive); in assay [9] it was 9.64 µM (inactive); in assay [10], 22.9 µM (inactive); in assay [11], 25.9 µM (inactive); in assay [12] it was 20.6 µM (inactive). The GI50 in [13] was 18.7 µM (inactive); in [14] it was 20.4 µM (inactive); in [15] it was 27 µM (inactive); in assay [16], 19.1 µM (inactive); in [17], 20 µM (inactive); in assay [18] it was 18.2 µM (inactive). Moreover, the GI50 in [19] is 19.4 µM (inactive); in assay [20] it was 24.6 µM (inactive).

Take `C=C(C)C1CC2=C(C(=O)OC)C=C(O2)C(C(=C)C)[C@@H]2OC(=O)/C(=C\C1O)[C@H]2N(C)C` (some centres undefined): the GI50 in assay [1] is 13.4 µM (inactive); in assay [2], 5.92 µM (inactive); in assay [3] it was 12.1 µM (inactive); in assay [4] it was 18.9 µM (inactive); in assay [5], 7.4 µM (inactive); in assay [6], 8.09 µM (inactive). Also, the GI50 in assay [7] was 17.5 µM (inactive); in [8] it was 8.05 µM (inactive); in assay [9], 6.92 µM (inactive); in assay [10], 11.7 µM (inactive); in assay [11], 14.6 µM (inactive); in assay [12], 12.9 µM (inactive). Further, the GI50 in assay [13] is 9.4 µM (inactive); in assay [14], 9.44 µM (inactive); in assay [15], 24.9 µM (inactive); in [16], 10.9 µM (inactive); in assay [17], 2.91 µM (inactive); in [18] it was 3.6 µM (inactive). The figures for the GI50 in [19] and in assay [20] were 12.5 µM (inactive) and 1.6 µM (inactive), respectively.

On to `CCC(c1ccc(N(C)C)cc1)C1NC(=S)NC1=O` (centres undefined), for which the GI50 is 96.8 µM (inactive) in [1]; > 100 µM (inactive) in assay [2]; > 100 µM (inactive) in assay [3]; > 100 µM (inactive) in assay [4]; > 100 µM (inactive) in assay [5]; 97.9 µM (inactive) in [6]. The GI50 is 67.9 µM (inactive) in assay [7]; > 100 µM (inactive) in [8]; 8.11 µM (inactive) in [9]; 51.5 µM (inactive) in assay [10]; 85.9 µM (inactive) in [11]; > 100 µM (inactive) in [12]. In addition, the GI50 was 98.2 µM (inactive) in assay [13]; 34.4 µM (inactive) in assay [14]; > 100 µM (inactive) in [15]; > 100 µM (inactive) in assay [16]; > 100 µM (inactive) in [17]; 20.1 µM (inactive) in assay [18]. Also, the figures for the GI50 in assay [19] and in assay [20] were > 100 µM (inactive) and 85.5 µM (inactive), respectively.

`O=C(/C=C/c1ccc2c(c1)OCO2)c1ccc(O)cc1`: the GI50 was 13.4 µM (inactive) in assay [1]; 11.1 µM (inactive) in assay [2]; 16.5 µM (inactive) in assay [3]; 17.6 µM (inactive) in assay [4]; 17.4 µM (inactive) in assay [5]; 11.2 µM (inactive) in assay [6]. The GI50 in assay [7] was 17.5 µM (inactive); in [8], 1.63 µM (inactive); in [9], 1.17 µM (inactive); in [10] it was 16.6 µM (inactive); in assay [11], 25.1 µM (inactive); in [12], 15.3 µM (inactive). In addition, the GI50 was 17.3 µM (inactive) in assay [13]; 14.8 µM (inactive) in [14]; 16.5 µM (inactive) in [15]; 1.64 µM (inactive) in assay [16]; 3.01 µM (inactive) in [17]; 5.58 µM (inactive) in [18]. Besides, the GI50 was 15.5 µM (inactive) in assay [19] and 18.7 µM (inactive) in assay [20].

As for `N#Cc1c(-c2ccccc2)[nH]c2ccc(Cl)cc2c1=O`, the GI50 in assay [1] was 22.4 µM (inactive); in assay [2] it was > 100 µM (inactive); in [3], > 100 µM (inactive); in assay [4] it was 34.8 µM (inactive); in assay [5], > 100 µM (inactive); in assay [6], > 100 µM (inactive). The GI50 was 22.4 µM (inactive) in assay [7]; 30.5 µM (inactive) in assay [8]; > 100 µM (inactive) in [9]; > 100 µM (inactive) in assay [10]; 44.7 µM (inactive) in [11]; > 100 µM (inactive) in assay [12]. Besides, the GI50 in assay [13] was > 100 µM (inactive); in assay [14], > 100 µM (inactive); in assay [15] it was 25.1 µM (inactive); in assay [16], 86.9 µM (inactive); in assay [17] it was 26.4 µM (inactive); in assay [18], > 100 µM (inactive). The GI50 in assay [19] was > 100 µM (inactive); in assay [20], 29.7 µM (inactive).

Take `COc1ccc2c(c1)CCCC(Br)C2=O` (centres undefined): the GI50 in assay [1] was 2.17 µM (inactive); in [2], 3.43 µM (inactive); in [3], 15.1 µM (inactive); in assay [4] it was 17.1 µM (inactive); in assay [5], 2.56 µM (inactive); in [6] it was 0.379 µM (active). For the same compound, the GI50 in assay [7] is 3.99 µM (inactive); in assay [8], 4.15 µM (inactive); in assay [9] it was 0.294 µM (active); in [10], 18.1 µM (inactive); in assay [11], 12.6 µM (inactive); in assay [12], 4.48 µM (inactive). The GI50 in assay [13] is 3.44 µM (inactive); in assay [14], 2.02 µM (inactive); in assay [15], 3.97 µM (inactive); in [16] it was 3.98 µM (inactive); in assay [17] it was 0.265 µM (active); in assay [18], 0.447 µM (active). Besides, the GI50 in assay [19] is 2.75 µM (inactive); in assay [20] it was 4.21 µM (inactive).

Turning to `C=CCc1cc(C(Cc2ccccc2)NC(C)C)cc(OCc2ccccc2)c1OCc1ccccc1` (centres undefined), the GI50 is 10.1 µM (inactive) in [1]; 17.3 µM (inactive) in assay [2]; 16.2 µM (inactive) in assay [3]; 18 µM (inactive) in assay [4]; 15.2 µM (inactive) in [5]; 14.8 µM (inactive) in assay [6]. Further, the GI50 was 17.8 µM (inactive) in assay [7]; 16.6 µM (inactive) in assay [8]; 12.2 µM (inactive) in assay [9]; 16.2 µM (inactive) in [10]; 13.2 µM (inactive) in assay [11]; 15.5 µM (inactive) in assay [12]. The GI50 in assay [13] was 17.3 µM (inactive); in [14] it was 15.7 µM (inactive); in assay [15], 14 µM (inactive); in assay [16], 17 µM (inactive); in assay [17] it was 15.3 µM (inactive); in assay [18], 16.8 µM (inactive). Also, the GI50 in [19] is 15.6 µM (inactive); in [20], 17.1 µM (inactive).

With `CC(C)[Si](OC1=CCCCCC12C(=O)N(C)c1ccccc12)(C(C)C)C(C)C` (centres undefined), the GI50 in [1] was 21.3 µM (inactive); in assay [2], 16.9 µM (inactive); in assay [3] it was 15 µM (inactive); in assay [4], 21.6 µM (inactive); in assay [5] it was 22.5 µM (inactive); in assay [6], 19.5 µM (inactive). Besides, the GI50 in assay [7] is 13.5 µM (inactive); in assay [8], 17.7 µM (inactive); in [9], 29.9 µM (inactive); in assay [10], 17.7 µM (inactive); in assay [11], 13.5 µM (inactive); in assay [12], 20.2 µM (inactive). The GI50 is 18.9 µM (inactive) in assay [13]; 25.1 µM (inactive) in [14]; 20.5 µM (inactive) in [15]; 21 µM (inactive) in [16]; 16.9 µM (inactive) in assay [17]; 24.1 µM (inactive) in [18]. Besides, in assay [20], the GI50 is 29 µM (inactive).
